Data from PMC9376960, “Ruthenium(II)–Tris-pyrazolylmethane Complexes Inhibit Cancer Cell Growth by Disrupting Mitochondrial Calcium Homeostasis” (Journal of Medicinal Chemistry, 2022).

How the values were obtained:
[1] = test system: HCT116 cells; test: Cellular uptake of Ru (ICP-MS); format: cell-based, human; conditions: HCT116, 15 μM, 24 h; mean ± SEM
Description: In these experiments, 1 × 10^6 HCT116 cells were seeded on 100 mm Petri dishes. After overnight preincubation in a drug-free medium, the cells were treated with the Ru complexes (15 μM) for 24 h. Afterward, the cells were extensively washed with PBS (37 °C), detached using 0.25% trypsin, washed twice with ice-cold PBS, and counted by an automatic cell counter. The cell pellets were digested using a microwave acid (HCl) digestion system (CEM Mars). The quantity of Ru taken up by the cells was determined by inductively coupled plasma mass spectrometry (ICP-MS). All experiments were carried out in triplicate.

[2] = Octanol/water partition coefficient, shake-flask, UV-vis; format: physicochemical
Description: Partition coefficients (Pow); IUPAC: […] A stock solution of the selected ruthenium compound (ca. 2 mg) was prepared by first adding MeOH (50 μL, to help solubilization), followed by octanol-saturated water (2.5 mL). The solution was diluted with octanol-saturated water (ca. 1:3 v/v ratio, cRu ≈ 10^-4 M, so that 1.5 ≤ A ≤ 2.0 at λmax), and its UV-vis spectrum was recorded (Aaq^0). An aliquot of the solution (Vaq = 1.2 mL) was transferred into a test tube, and water-saturated octanol (Vorg = Vaq = 1.2 mL) was added. […] The UV-vis spectrum of the aqueous phase was recorded (Aaq^f), and the partition coefficient was calculated as Pow = ([…], where […] are the absorbances in the aqueous phase before and after partition with the organic phase, respectively.[118] For 1, an inverse procedure was followed, starting from a solution of the compound in water-saturated octanol. The partition coefficient was calculated as Pow = Aorg^f/(Aorg^0 - Aorg^f), where Aorg^0 and Aorg^f are the absorbances in the organic phase before and after partition with the aqueous phase, respectively. The wavelength of the maximum absorption of each compound (280-380 nm range) was used for UV-vis quantitation. The procedure was repeated three times for each sample (from the same stock solution); the results are given as mean ± standard deviation (Table 2).

[3] = pH of aqueous solution over time; format: physicochemical; conditions: 10^–3 M H2O solution
Description: Reactants and solvents were purchased from Alfa Aesar, Merck, Strem, or TCI Chemicals and were of the highest purity available. Tris(1-pyrazolyl)methane (tpm) was prepared according to the published procedure.[105] Reactions were conducted under a N2 atmosphere using standard Schlenk techniques, and all products were stored in air once isolated. All compounds are >95% pure by elemental analysis. Solvents were used as received unless otherwise stated. Toluene and diethyl ether were dried with the solvent purification system mBraun MB SPS5, while methanol was distilled from calcium hydride and isopropanol from magnesium. IR spectra of solid samples were recorded on an Agilent Cary630 FTIR spectrometer. IR spectra were processed with Spectragryph software.[106] NMR spectra were recorded at 298 K on a JEOL JNM-ECZ500R instrument equipped with a Royal HFX Broadband probe. Chemical shifts (expressed in parts per million) are referenced to the residual solvent peaks (^1H, ^13C)[107] or external standard (^31P to H3PO4). ^1H and ^13C{^1H} NMR spectra were assigned with the assistance of ^1H–^13C (gs-HSQC and gs-HMBC) correlation experiments.[108] Elemental analyses were performed on a Vario MICRO cube instrument (Elementar). Conductivity measurements were performed at 25 °C using an XS COND 8 instrument (cell constant = 1.0 cm^–1).[109],[110] pH measurements were performed with an Orion pH meter equipped with a Hamilton glass pH electrode. ESI-Q/ToF flow injection analysis was carried out using a 1200 Infinity HPLC (Agilent Technologies), coupled to a Jet Stream ESI interface (Agilent) with a Quadrupole-Time-of-Flight tandem mass spectrometer 6530 Infinity Q-TOF (Agilent Technologies).

Substance	Accumulation of ruthenium, ng Ru/10^6 cells [1] [ng Ru/10^6 cells]	log Pow [2]	pH(24h) ([3]; 24 h)	pH(48h) ([3]; 48 h)	pH(t0) ([3]; t0)
[RuCl(κ^3-tpm)(PPh3)2]Cl [compound 1]	145.1 ± 5.9				
[RuCl(κ^3-tpm)(PPh3)(CNCy)]Cl [compound 8]	59.4 ± 0.6				
[RuCl(κ^3-tpm)(PPh3){CNCH2P(O)(OEt2)2}]Cl [compound 9]	16.2 ± 1.4	–0.20 ± 0.05			
[RuCl(κ^3-tpm)(PPh3){NCHN(Me)(CH)2}]Cl [compound 3]	66.1 ± 8.0	–0.15 ± 0.03	6.66	6.36	6.78
[RuCl(κ^3-tpm)(PPh3){P(OMe)3}]Cl [compound 7]	63.3 ± 6.0				
